Data on 7 compounds can be found in US7465582B1, “Nurr-1 induction of a dopaminergic neuronal fate in a neural stem cell or neural progenitor cell in vitro” (Neuro Therapeutics AB, priority 2000, dated 2008).

One assay has as its system RXR retinoid receptors. The following applies: Lehmann et al. 1992; cited from earlier work.
The subject of a further assay is parental C17.2 cells. The experiment in a line: Co-culture of parental C17.2 cells with primary E16 ventral mesencephalic cells; TH expression. It counts as cell-based, mouse. The settings on record: parental C17.2 cells in co-culture; SR11237 to 1 μM, bFGF to 10 ng/ml. The procedure:
(§1) C17.2 neural stem cells (Snyder, E. Y. et al. Cell 68, 33-51 (1992)) were maintained and passaged as previously described (Snyder, E. Y. et al. Cell 68, 33-51 (1992)). Ventral mesencephala from E16 rat embryos were dissected, mechanically dissociated and plated at a final density of 1×10^5 cells/cm^2 on poly-D-lysine coated culture wells in a defined, serum-free medium (N^2, consisting of a 1:1 mixture of F12 and DMEM containing insulin (10 ng/ml), transferrin (100 μg/ml), putrescine (100 μM), progesterone (20 nM), selenium (30 nM) glucose (6 mg/ml), and bovine serum albumin (1 mg/ml)). After 24 hours in vitro, co-cultures were initiated by directly plating 2.5−5×10^4 C17.2-derived cells into the primary cultures; all ages of cultures given use this point as 0 DIV. […]
(§2) Fixed cultures were incubated with one of the following antibodies, diluted appropriately in phosphate-buffered saline (PBS) containing 1% bovine serum albumin and 0.3% Triton-X 100: mouse anti-BrdU, 1:50 (DAKO, Denmark), mouse anti-β-tubulin, Type III (TuJ1), 1:250 (Sigma), mouse anti-TH, 1:1000 (Incstar, USA), rabbit anti-β-galactosidase, 1:250 (Cappel, USA) rabbit anti-GFAP, 1:500 (DAKO, Denmark), rabbit anti-AHD-2, 1:4000. […] Quantitative immunocytochemical data represent means and standard errors from 100-500 cells counted in each of 3-6 separate wells from 2-4 experiments. […]

In a further assay the test system is Nurr1-C17.2 clone 42. The experiment in a line: Co-culture of Nurr1-C17.2 clone 42 with primary E16 ventral mesencephalic cells; TH expression. It is filed as cell-based, mouse. The following applies: clone 42 with primary VM cells. The procedure: as §1, §2
For assay [1], the system named is Nurr1 over-expressing C17.2 clones. The experiment in a line: Treatment of Nurr1 clones with trophic factors, mitogens, cytokines and other agents; TH immunoreactivity. It is filed as cell-based, mouse. The following applies: Nurr1 clones without co-culture; factors alone or combined. The text has this:
C17.2 cells were cotransfected with a CMX-Nurr1 expression vector (Perlmann, T. et al. Genes Dev. 9, 769-782 (1995)) and PGK-puromycin resistance plasmids (Nurr1 clones) or a PGK-puromycin alone (mock clones). For reporter assays, C17.2 parental cells were transfected with the Nurr1 expression vector, the reporter plasmid (NGFIB-binding response element (NBRE) triplet upstream of TK minimal promoter fused to firefly luciferase) and a pRSV-alkaline phosphatase plasmid at a 2:1:2 ratio.
(§3) C17.2 neural stem cells (Snyder, E. Y. et al. Cell 68, 33-51 (1992)) were maintained and passaged as previously described (Snyder, E. Y. et al. Cell 68, 33-51 (1992)). Ventral mesencephala from E16 rat embryos were dissected, mechanically dissociated and plated at a final density of 1×10^5 cells/cm^2 on poly-D-lysine coated culture wells in a defined, serum-free medium (N^2, consisting of a 1:1 mixture of F12 and DMEM containing insulin (10 ng/ml), transferrin (100 μg/ml), putrescine (100 μM), progesterone (20 nM), selenium (30 nM) glucose (6 mg/ml), and bovine serum albumin (1 mg/ml)). After 24 hours in vitro, co-cultures were initiated by directly plating 2.5−5×10^4 C17.2-derived cells into the primary cultures; all ages of cultures given use this point as 0 DIV. […] Purified Type 1 astrocytes were obtained from mixed glial cultures derived from various regions of P1 rats according to a standard protocol (McCarthy, K. D. et al. J. Cell Biol. 85, 890-902 (1980)). After replating into 6- or 12-well plates, astrocytes were grown to confluency in serum-containing media and changed to N2 medium. After 3-5 DIV, co-cultures were initiated in fresh N2 as described above. All factors were added once, at the initiation of co-culture (concentrations are noted in the Results and Discussion), with the exception of 5-bromodeoxyuridine (BrdU), which was added 4-6 hours prior to fixation. Cultures were maintained in a humidified 5% CO2, 95% air incubator at 37 C and fixed after given time periods with 4% paraformaldehyde for 45 minutes for immunocytochemical analysis.
Fixed cultures were incubated with one of the following antibodies, diluted appropriately in phosphate-buffered saline (PBS) containing 1% bovine serum albumin and 0.3% Triton-X 100: mouse anti-BrdU, 1:50 (DAKO, Denmark), mouse anti-β-tubulin, Type III (TuJ1), 1:250 (Sigma), mouse anti-TH, 1:1000 (Incstar, USA), rabbit anti-β-galactosidase, 1:250 (Cappel, USA) rabbit anti-GFAP, 1:500 (DAKO, Denmark), rabbit anti-AHD-2, 1:4000. Incubations were either carried out at 4° C. overnight, or at room temperature for 1 hour. […] After washing, cultures were incubated for 1-3 hr with appropriate secondary antibodies (biotinylated horse-anti-mouse IgG or goat-anti-rabbit IgG, Vector, USA), 1:100, in the same dilution buffer. Immunostaining was visualized with the Vector Laboratory ABC immunoperoxidase kit, using either AEC (red) or SG (grey) substrates. […] Quantitative immunocytochemical data represent means and standard errors from 100-500 cells counted in each of 3-6 separate wells from 2-4 experiments. For quantitation of TH expression in co-cultures of primary and C-17.2-derived cells, TH was visualized with the brightfield AEC substrate, while β-gal was assessed using FITC, thus all data expressed as “% TH+” represents the number of TH+/β-gal+divided by total β-gal positive cells.

The subject of another assay is C17.2 cells. The settings on record: Kitchens et al. 1994; cited from earlier work.
A further assay relates to C17.2 clonal lines. The experiment in a line: Baseline proliferation of clonal lines after extended factor treatment in serum-free medium. The settings on record: after extended treatment with the factor in serum-free medium; most clonal lines. It counts as cell-based, mouse. The procedure: as §3, with “Cultures were maintained in a humidified 5% CO2, 95% air incubator at 37 C and fixed after given time periods with 4% paraformaldehyde for 45 minutes for immunocytochemical analysis.” left out

Another assay has as its system Nurr1 clones. The experiment in a line: bFGF pretreatment of Nurr1 clones before co-culture with primary ventral mesencephalic cultures; BrdU labeling and TH expression. It counts as cell-based, mouse. The following applies: bFGF pretreatment 5 DIV. As to the method: as §1, §2
(Incorporation of labelled thymidine or its analogues reports DNA synthesis.)

The subject of assay [2] is Nurr1-c42-derived dopaminergic neurons. The experiment in a line: Response of TH positive c42 cells in co-culture to neurotrophic factors. It counts as cell-based, mouse. The settings on record: 9 DIV, after SR11237 and bFGF induction; compared to N2 control; NT-3 30 ng/ml. As to the method:
as §1, §2

On to `CC1(C)CCC(C)(C)c2cc(C3(c4ccc(C(=O)O)cc4)OCCO3)ccc21` [SR11237, reference compound], for which the “stimulation of RXR retinoid receptors” value in the assay with RXR retinoid receptors was “specifically stimulates RXR retinoid receptors”. In addition, in the assay with parental C17.2 cells, the “induction of TH expression” value is given as “did not induce expression of TH”.

For the compound `CC1=C(/C=C/C(C)=C/C=C/C(C)=C/C(=O)O)C(C)(C)CCC1` [all-trans retinoic acid, reference compound], the “effect on TH expression in co-culture (in words)” value in the assay on Nurr1-C17.2 clone 42 is “without effect”.

For the compound `NCCc1ccc(O)c(O)c1` [dopamine], in assay [1], the “induction of TH expression” value was “None of these factors induced TH expression in any of the clones”.

“EGF: epidermal growth factor, mitogen (NSDSECPLSHDGYCLHDGVCMYIEALDKYACNCVVGYIGERCQYRDLKWWELR; Epidermal growth factor; UniProt P01133 971-1023, looked up)”: the “effect on TH expression in co-culture (in words)” value in the assay with Nurr1-C17.2 clone 42 is recorded as “effects of bFGF could be substituted by EGF”. Also, the mitogenic effect entry in the assay with C17.2 cells was “directly mitogenic”. Besides, the “baseline proliferation after passage into SFM alone” value with C17.2 clonal lines was “remained unexpectedly elevated”. Also, the “induction of TH expression” value in assay [1] is recorded as “None of these factors induced TH expression in any of the clones”.

Consider “bFGF: basic fibroblast growth factor, mitogen”, for which, in the assay on C17.2 cells, the mitogenic effect entry was “directly mitogenic”. Also, the “baseline proliferation after passage into SFM alone” value with C17.2 clonal lines was “remained unexpectedly elevated”. For the same compound, the “induction of TH expression” value is reported as “did not induce expression of TH” with parental C17.2 cells and “None of these factors induced TH expression in any of the clones” in assay [1]. Besides, in the assay with Nurr1 clones (co-culture 9 DIV, highest value, clone 42), the “% TH+ cells after co-culture” value is listed as no more than 45%. The “BrdU labeling of pretreated Nurr1 clones” value with Nurr1 clones (24 hours after passage into co-culture, versus cells split directly out of serum-containing medium) was “increased”. The “number of TH+ cells in the culture” value in assay [2] is reported as “dramatically increased the number of TH+ cells”.

For the compound insulin-like growth factor, the “induction of TH expression” value in assay [1] is “None of these factors induced TH expression in any of the clones”.

In the case of sonic hedgehog, the “induction of TH expression” value in assay [1] is “None of these factors induced TH expression in any of the clones”.
